Laboratory results taken from US20210017499A1, “SILOXANE POLYMER-BASED CANCER STEM CELL PREPARATION METHOD” (KOREA ADVANCED INSTITUTE OF SCIENCE AND TECHNOLOGY, priority 2019, published 2021).

Columns and labels:
Assay in all cases: Cell viability for doxorubicin (WST-1)
Type in all cases: cell-based, human
[1] = tested on: SKOV3-ssiCSC; details: DOX at various concentrations, 24 hours
Procedure: (§1) ssiCSC spheroids prepared from different kinds of cancer cells (SKOV3, MCF-7, Hep3B and SW480) were isolated using trypsin (TrypLE Express, Gibco), and the isolated cells were washed with D-PBS twice. The ssiCSC was plated on a 96-well plate (1×10^4 cells/well) and was cultured in a cell growth medium at 37° C. for 24 hours. Then, the medium was removed, and a new medium comprising various concentrations of doxorubicin was added to each well and cultured for 24 hours. Next, each well was washed with D-PBS and was replaced with a new cell growth medium of 100 μl, and then WST-1 cell proliferation reagent (Roche) of 10 μl was added and cultured for 4 hours. Then, the absorbance at 450 nm (standard wavelength, 600 nm) was measured using a microplate reader (Molecular Devices).
(§2) In addition, the drug resistance of ssiCSC for doxorubicin (DOX) known as an anti-cancer agent was confirmed. Specifically, ssiCSC spheroids prepared by culturing on the pV4D4 surface for 8 days were isolated to single cells, and the cell was cultured on the conventional TCP surface to a 2D single layer, and then DOX at various concentrations was treated for 24 hours.

[2] = tested on: SW480-ssiCSC
Procedure: as §1, §2

[3] = tested on: ssiCSC (SKOV3, MCF-7, Hep3B and SW480); details: Dox of 50 μM, 24 hours, vs 2D control group
Procedure: as §1, §2

COc1cccc2c1C(=O)c1c(O)c3c(c(O)c1C2=O)C[C@@](O)(C(=O)CO)C[C@@H]3O[C@H]1C[C@H](N)[C@H](O)[C@H](C)O1 [Dox, doxorubicin]
drug resistance (cell viability) [1]: complete resistance
drug resistance (cell viability) ([2]; DOX at various concentrations, 24 hours): complete resistance
drug resistance after subculture ([2]; subcultured on the TCP surface twice): maintained drug resistance
cell viability ([2]; vs control group cancer cells without DOX): higher cell viability than the cancer cells of the control group in which DOX was not treated
drug resistance (cell viability) [3]: higher resistance
